Laboratory results published in ChEMBL document CHEMBL5584323, “Peptide-Mediated Small Molecule Lysosome-Targeting Chimeras for Targeted Degradation of Membrane and Intracellular Proteins” (J Med Chem, 2024).
Values belong to the molecule of their own block, whether it stands above or below them. The source made the active and inactive calls. The rule behind the calls is not given here. Starred links: 1 amine or outer side, 2 acyl side, 3 side chain; linkers in the order of their positions; H or OH if unused. Non-standard residues stand in square brackets, D forms with d. Residues, ends and D or L forms follow the SMILES beside them. *: point of attachment. X5 = Nc1ncnc2c1c(-c1ccc(Oc3ccccc3)cc1)nn2[C@@H]1CCCN(C(=O)/C=C/CN2CCN(CCOCCOCCC(=O)*)CC2)C1; X4 = COc1nc(OCc2cccc(-c3ccccc3)c2C)ccc1CNCCNC(=O)CCCc1cn(CC(=O)*)nn1; X1 = Cc1ccc(-n2nc3c(=O)n(CCCC(=O)*)nc(C)c3c2C)cc1; X2 = O=S(=O)(c1ccc(NC(=S)NCc2cccnc2)cc1)*; X3 = O=C(CCCCCCCN1CCN([*:1])CC1)[*:2]; Aoc = NCCCCCCCC(=O)O

Tests used:
MIA PaCa-2 [1] = assay: Antiproliferative activity against human MIA PaCa-2 cells incubated for 72 hrs by CKK8 assay; assay type: functional, cell-based; settings: MIA PaCa-2, 72 h
[2] = target: T1, Nicotinamide phosphoribosyltransferase (Homo sapiens, UniProt P43490); assay: Peptide-mediated small molecule lysosome-targeting chimeric activity based NAMPT degradation in human MOLT-4 cells at 1 to 40 uM incubated for 48 hrs by Western blot analysis relative to control; assay type: cell-based; settings: dose 1-40 µM
Target sequence in this assay (P43490 whole entry, looked up): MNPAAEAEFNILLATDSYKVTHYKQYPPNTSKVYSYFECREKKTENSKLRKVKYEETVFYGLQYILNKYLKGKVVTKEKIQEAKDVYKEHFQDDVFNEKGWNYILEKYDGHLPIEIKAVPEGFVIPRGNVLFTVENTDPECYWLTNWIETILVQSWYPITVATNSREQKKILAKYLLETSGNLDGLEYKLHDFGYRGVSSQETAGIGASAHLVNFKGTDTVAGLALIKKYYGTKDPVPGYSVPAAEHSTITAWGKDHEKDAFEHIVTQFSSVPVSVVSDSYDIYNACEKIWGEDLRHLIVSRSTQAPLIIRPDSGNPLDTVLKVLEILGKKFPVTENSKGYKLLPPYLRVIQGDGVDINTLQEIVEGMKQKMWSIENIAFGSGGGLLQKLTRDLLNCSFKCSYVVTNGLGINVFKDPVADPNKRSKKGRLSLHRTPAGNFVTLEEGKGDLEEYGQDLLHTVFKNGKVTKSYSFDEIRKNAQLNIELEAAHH

[3] = target: T1, Nicotinamide phosphoribosyltransferase; assay: Peptide-mediated small molecule lysosome-targeting chimeric activity based NAMPT degradation in human MOLT-4 cells incubated for 48 hrs by Western blot analysis; assay type: cell-based
[4] = target: T1, Nicotinamide phosphoribosyltransferase; assay: Peptide-mediated small molecule lysosome-targeting chimeric activity based NAMPT degradation in human A2780 cells incubated for 48 hrs by Western blot analysis; assay type: cell-based
[5] = target: T1, Nicotinamide phosphoribosyltransferase; assay: Peptide-mediated small molecule lysosome-targeting chimeric activity based NAMPT degradation in human A2780 cells at 1 to 40 uM incubated for 48 hrs by Western blot analysis relative to control; assay type: cell-based; settings: dose 1-40 µM
Target sequence in this assay (P43490 whole entry, looked up): as above

[6] = target: T2, Programmed cell death 1 ligand 1 (Homo sapiens, UniProt Q9NZQ7); assay: Peptide-mediated small molecule lysosome-targeting chimeric activity based PD-L1 degradation in human A549 cells incubated for 48 hrs by Western blot analysis; assay type: cell-based
T2 sequence (Q9NZQ7 whole entry): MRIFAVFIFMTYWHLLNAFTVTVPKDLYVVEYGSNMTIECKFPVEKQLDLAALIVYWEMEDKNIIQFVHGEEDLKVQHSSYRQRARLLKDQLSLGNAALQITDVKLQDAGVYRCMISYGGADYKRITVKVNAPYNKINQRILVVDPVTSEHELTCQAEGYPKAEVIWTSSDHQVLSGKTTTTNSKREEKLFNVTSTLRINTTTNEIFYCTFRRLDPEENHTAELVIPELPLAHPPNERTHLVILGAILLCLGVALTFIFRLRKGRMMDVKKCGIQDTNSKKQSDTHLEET

[7] = target: T2, Programmed cell death 1 ligand 1; assay: Peptide-mediated small molecule lysosome-targeting chimeric activity based PD-L1 degradation in Baf-A1-treated human A549 cells upto 5 uM incubated for 48 hrs by Western blot analysis; assay type: cell-based
[8] = target: T2, Programmed cell death 1 ligand 1; assay: Peptide-mediated small molecule lysosome-targeting chimeric activity based PD-L1 degradation in human A549 cells at 0.1 to 5 uM incubated for 48 hrs by Western blot analysis relative to control; assay type: cell-based; settings: dose 0.1-5 µM
[9] = target: Tyrosine-protein kinase BTK (Homo sapiens) (UniProt Q06187); assay: Peptide-mediated small molecule lysosome-targeting chimeric activity based BTK degradation in human K562 cells at 10 uM incubated for 48 hrs by Western blot analysis relative to control; assay type: cell-based
Tyrosine-protein kinase BTK (Homo sapiens), sequence (Q06187 whole entry): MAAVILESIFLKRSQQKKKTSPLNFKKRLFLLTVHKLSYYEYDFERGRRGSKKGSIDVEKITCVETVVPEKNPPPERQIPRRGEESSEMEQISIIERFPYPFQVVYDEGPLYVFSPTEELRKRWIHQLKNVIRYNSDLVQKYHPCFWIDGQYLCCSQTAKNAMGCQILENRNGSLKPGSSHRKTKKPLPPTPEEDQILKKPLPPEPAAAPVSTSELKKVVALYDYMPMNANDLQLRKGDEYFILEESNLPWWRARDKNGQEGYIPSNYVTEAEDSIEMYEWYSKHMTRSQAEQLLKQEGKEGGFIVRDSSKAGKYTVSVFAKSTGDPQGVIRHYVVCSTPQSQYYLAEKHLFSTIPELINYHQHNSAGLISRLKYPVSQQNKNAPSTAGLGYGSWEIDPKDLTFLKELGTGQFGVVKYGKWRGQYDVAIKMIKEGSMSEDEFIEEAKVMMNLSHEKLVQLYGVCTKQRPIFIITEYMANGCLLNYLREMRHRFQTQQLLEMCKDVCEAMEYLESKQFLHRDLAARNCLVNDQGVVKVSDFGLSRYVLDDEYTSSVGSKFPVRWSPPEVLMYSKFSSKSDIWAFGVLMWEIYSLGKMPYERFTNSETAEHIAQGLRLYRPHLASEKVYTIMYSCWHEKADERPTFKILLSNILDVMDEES

MIA PaCa-2 [10] = assay: Effect on total Erk in human MIA PaCa-2 cells at 0.1 to 5 uM incubated for 48 hrs by Western blot analysis; assay type: functional, cell-based; settings: dose 0.1-5 µM
MIA PaCa-2 [11] = assay: Induction of apoptosis in human MIA PaCa-2 cells assessed as necrotic cells at 20 uM incubated for 48 hrs by Annexin V-FITC/PI staining based flow cytometry (reference value: 0.55 %); assay type: functional
MIA PaCa-2 [12] = assay: Induction of apoptosis in human MIA PaCa-2 cells assessed as late apoptotic cells at 5 uM incubated for 48 hrs by Annexin V-FITC/PI staining based flow cytometry (reference value: 2.90 %); assay type: functional
[13] = target: T3, Retinal rod rhodopsin-sensitive cGMP 3',5'-cyclic phosphodiesterase subunit delta (Homo sapiens, UniProt O43924); assay: Peptide-mediated small molecule lysosome-targeting chimeric activity based PDE-delta degradation in human MIA PaCa-2 cells assessed as reduction in Akt phosphorylation at S473 at 2 uM incubated for 48 hrs by Western blot analysis; assay type: cell-based
T3 sequence (O43924 whole entry): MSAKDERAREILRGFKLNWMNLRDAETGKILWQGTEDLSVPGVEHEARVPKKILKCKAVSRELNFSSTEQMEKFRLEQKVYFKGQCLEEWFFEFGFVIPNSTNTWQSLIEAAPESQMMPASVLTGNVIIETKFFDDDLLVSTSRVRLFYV

MIA PaCa-2 [14] = assay: Induction of apoptosis in human MIA PaCa-2 cells assessed as necrotic cells at 5 uM incubated for 48 hrs by Annexin V-FITC/PI staining based flow cytometry (reference value: 0.55 %); assay type: functional
MIA PaCa-2 [15] = assay: Induction of apoptosis in human MIA PaCa-2 cells assessed as late apoptotic cells at 10 uM incubated for 48 hrs by Annexin V-FITC/PI staining based flow cytometry (reference value: 2.90 %); assay type: functional
MIA PaCa-2 [16] = assay: Induction of apoptosis in human MIA PaCa-2 cells assessed as late apoptotic cells at 20 uM incubated for 48 hrs by Annexin V-FITC/PI staining based flow cytometry (reference value: 2.90 %); assay type: functional
MIA PaCa-2 [17] = assay: Induction of apoptosis in human MIA PaCa-2 cells assessed as early apoptotic cells at 20 uM incubated for 48 hrs by Annexin V-FITC/PI staining based flow cytometry (reference value: 4.45 %); assay type: functional
[18] = Stability of compound in PBS buffer incubated for 48 hrs by HPLC analysis; assay type: physicochemical
MIA PaCa-2 [19] = assay: Induction of apoptosis in human MIA PaCa-2 cells assessed as early apoptotic cells at 5 uM incubated for 48 hrs by Annexin V-FITC/PI staining based flow cytometry (reference value: 4.45 %); assay type: functional
[20] = target: T3, Retinal rod rhodopsin-sensitive cGMP 3',5'-cyclic phosphodiesterase subunit delta; assay: Peptide-mediated small molecule lysosome-targeting chimeric activity based PDE-delta degradation in Baf-A1-treated human MIA PaCa-2 cells at 0.5 to 1 uM incubated for 48 hrs by Western blot analysis; assay type: cell-based; settings: dose 0.5-1 µM
MIA PaCa-2 [21] = assay: Induction of apoptosis in human MIA PaCa-2 cells assessed as early apoptotic cells at 10 uM incubated for 48 hrs by Annexin V-FITC/PI staining based flow cytometry (reference value: 4.45 %); assay type: functional
MIA PaCa-2 [22] = assay: Induction of apoptosis in human MIA PaCa-2 cells assessed as necrotic cells at 10 uM incubated for 48 hrs by Annexin V-FITC/PI staining based flow cytometry (reference value: 0.55 %); assay type: functional
MIA PaCa-2 [23] = assay: Effect on total Akt in human MIA PaCa-2 cells at 0.1 to 5 uM incubated for 48 hrs by Western blot analysis; assay type: functional, cell-based; settings: dose 0.1-5 µM
[24] = target: T3, Retinal rod rhodopsin-sensitive cGMP 3',5'-cyclic phosphodiesterase subunit delta; assay: Peptide-mediated small molecule lysosome-targeting chimeric activity based PDE-delta degradation in human MIA PaCa-2 cells assessed as increase in lysosome-related organelles at 1 uM incubated for 48 hrs by TEM analysis; assay type: cell-based
[25] = target: T3, Retinal rod rhodopsin-sensitive cGMP 3',5'-cyclic phosphodiesterase subunit delta; assay: Peptide-mediated small molecule lysosome-targeting chimeric activity based PDE-delta degradation in human MIA PaCa-2 cells at 0.1 uM incubated for 48 hrs by Western blot analysis; assay type: cell-based
MIA PaCa-2 [26] = assay: Induction of apoptosis in human MIA PaCa-2 cells assessed as viable cells at 5 uM incubated for 48 hrs by Annexin V-FITC/PI staining based flow cytometry (reference value: 92.1 %); assay type: functional; settings: read-out: Activity
[27] = target: T3, Retinal rod rhodopsin-sensitive cGMP 3',5'-cyclic phosphodiesterase subunit delta; assay: Peptide-mediated small molecule lysosome-targeting chimeric activity based PDE-delta degradation in human MIA PaCa-2 cells at 5 uM incubated for 48 hrs by Western blot analysis relative to control; assay type: cell-based
MIA PaCa-2 [28] = assay: Induction of apoptosis in human MIA PaCa-2 cells assessed as viable cells at 20 uM incubated for 48 hrs by Annexin V-FITC/PI staining based flow cytometry (reference value: 92.1 %); assay type: functional; settings: read-out: Activity
[29] = target: T3, Retinal rod rhodopsin-sensitive cGMP 3',5'-cyclic phosphodiesterase subunit delta; assay: Peptide-mediated small molecule lysosome-targeting chimeric activity based PDE-delta degradation in human MIA PaCa-2 cells assessed as reduction in Erk phosphorylation at Thr202/Tyr204 at 0.1 to 5 uM incubated for 48 hrs by Western blot analysis; assay type: cell-based; settings: dose 0.1-5 µM
MIA PaCa-2 [30] = assay: Induction of apoptosis in human MIA PaCa-2 cells assessed as viable cells at 10 uM incubated for 48 hrs by Annexin V-FITC/PI staining based flow cytometry (reference value: 92.1 %); assay type: functional; settings: read-out: Activity
[31] = Metabolic stability in rat liver microsomes assessed as half life; assay type: ADME, Microsome
[32] = target: T3, Retinal rod rhodopsin-sensitive cGMP 3',5'-cyclic phosphodiesterase subunit delta; assay: Peptide-mediated small molecule lysosome-targeting chimeric activity based PDE-delta degradation in human MIA PaCa-2 cells incubated for 48 hrs by Western blot analysis; assay type: cell-based

- IC50 (MIA PaCa-2 [1]): 9300 nM
Compound: Cc1ccc(-n2nc3c(=O)n(CCCC(=O)NCCCCCNc4cccc5c4C(=O)N(C4CCC(=O)NC4=O)C5=O)nc(C)c3c2C)cc1 (stereo unspecified)

- Emax [2]: 90%
- DC50 [3]: 7000 nM
- Activity ([3]; dose 1-40 µM): Dose-Dependent Effect
- DC50 [4]: 890 nM
- Activity ([4]; dose 1-40 µM): Dose-Dependent Effect
- Emax [5]: 93%
Compound: N=C(N)NCCC[C@H](NC(=O)CNC(=O)CNC(=O)CNC(=O)CCCCCCCN1CCN(S(=O)(=O)c2ccc(NC(=S)NCc3cccnc3)cc2)CC1)C(=O)N[C@@H](CCCNC(=N)N)C(=O)N[C@@H](CCCNC(=N)N)C(=O)N[C@@H](CCCNC(=N)N)C(=O)N[C@@H](CCCNC(=N)N)C(=O)N[C@@H](CCCNC(=N)N)C(=O)N[C@@H](CCCNC(=N)N)C(=O)N[C@@H](CCCNC(=N)N)C(=O)N[C@@H](CCCNC(=N)N)C(=O)N[C@@H](CC(N)=O)C(=O)N1CCC[C@H]1C(=O)NCC(=O)N[C@@H](Cc1ccc(O)cc1)C(N)=O (X2-[X3]GGGRRRRRRRRRNPGY-NH2)

Compound: COc1nc(OCc2cccc(-c3ccccc3)c2C)ccc1CNCCNC(=O)CCCc1cn(CC(=O)NCC(=O)NCC(=O)N[C@@H](CCCNC(=N)N)C(=O)N[C@@H](CCCNC(=N)N)C(=O)N[C@@H](CCCNC(=N)N)C(=O)N[C@@H](CCCNC(=N)N)C(=O)N[C@@H](CCCNC(=N)N)C(=O)N[C@@H](CCCNC(=N)N)C(=O)N[C@@H](CCCNC(=N)N)C(=O)N[C@@H](CCCNC(=N)N)C(=O)N[C@@H](CCCNC(=N)N)C(=O)N[C@@H](CC(N)=O)C(=O)N2CCC[C@H]2C(=O)NCC(=O)N[C@@H](Cc2ccc(O)cc2)C(N)=O)nn1 (X4-GGRRRRRRRRRNPGY-NH2)
- DC50 [6]: 200 nM
- Activity [7]: inactive
- Emax [8]: 92%

- Emax [9]: 63%
Compound: N=C(N)NCCC[C@H](NC(=O)CNC(=O)CNC(=O)CNC(=O)CCOCCOCCN1CCN(C/C=C/C(=O)N2CCC[C@@H](n3nc(-c4ccc(Oc5ccccc5)cc4)c4c(N)ncnc43)C2)CC1)C(=O)N[C@@H](CCCNC(=N)N)C(=O)N[C@@H](CCCNC(=N)N)C(=O)N[C@@H](CCCNC(=N)N)C(=O)N[C@@H](CCCNC(=N)N)C(=O)N[C@@H](CCCNC(=N)N)C(=O)N[C@@H](CCCNC(=N)N)C(=O)N[C@@H](CCCNC(=N)N)C(=O)N[C@@H](CCCNC(=N)N)C(=O)N[C@@H](CC(N)=O)C(=O)N1CCC[C@H]1C(=O)NCC(=O)N[C@@H](Cc1ccc(O)cc1)C(N)=O (X5-GGGRRRRRRRRRNPGY-NH2)

- Activity [13]: Active
- IC50 (MIA PaCa-2 [1]): 3600 nM
- Stability [18]: Stable
- Activity [20]: inactive
- Activity [24]: Active
- Activity [25]: Active
- Emax [27]: 89%
- Activity [29]: Active
- half-life [31]: 33.5 min
- DC50 [32]: 230 nM
- Activity ([32]; dose 0.1-5 µM): Dose-Dependent Effect
Compound: Cc1ccc(-n2nc3c(=O)n(CCCC(=O)NCCCCCCCC(=O)NCC(=O)NCC(=O)NCC(=O)N[C@@H](CCCNC(=N)N)C(=O)N[C@@H](CCCNC(=N)N)C(=O)N[C@@H](CCCNC(=N)N)C(=O)N[C@@H](CCCNC(=N)N)C(=O)N[C@@H](CCCNC(=N)N)C(=O)N[C@@H](CCCNC(=N)N)C(=O)N[C@@H](CCCNC(=N)N)C(=O)N[C@@H](CCCNC(=N)N)C(=O)N[C@@H](CCCNC(=N)N)C(=O)N[C@@H](CC(N)=O)C(=O)N4CCC[C@H]4C(=O)NCC(=O)N[C@@H](Cc4ccc(O)cc4)C(N)=O)nc(C)c3c2C)cc1 ({X1-Aoc}-GGGRRRRRRRRRNPGY-NH2)
- Activity (MIA PaCa-2 [10]): inactive
- Activity (MIA PaCa-2 [11]): 3.9%
- Activity (MIA PaCa-2 [12]): 3.48%
- Activity (MIA PaCa-2 [14]): 0.95%
- Activity (MIA PaCa-2 [15]): 13.3%
- Activity (MIA PaCa-2 [16]): 19.7%
- Activity (MIA PaCa-2 [17]): 16.8%
- Activity (MIA PaCa-2 [19]): 6.85%
- Activity (MIA PaCa-2 [21]): 10.7%
- Activity (MIA PaCa-2 [22]): 2.05%
- Activity (MIA PaCa-2 [23]): inactive
- viability at 5 µM (MIA PaCa-2 [26]): 88.7%
- viability at 20 µM (MIA PaCa-2 [28]): 59.7%
- viability at 10 µM (MIA PaCa-2 [30]): 73.3%
